From patent US11905324B2, “Fluorescent fusion polypeptide capable of detecting phosphorylation of cellular membrane receptors by GRKs (G-protein receptor kinases) and/or receptor tyrosine kinases (RTKs)” (Innovative Technologies in Biological Systems SL, priority 2017, dated 2024)

Molecular target: T1, NK1 receptor (Homo sapiens, UniProt P25103)
T1 construct: expressed in transfected cells
Experiment: NK1-Red ß-ARRNomad biosensor cell line inhibition assay (co-treatment with Substance P)
Format: cell-based
Conditions: co-treated with Substance P 100 nM, 24 h, BD PATHWAY 855; read-out: Ic50 (inhibition of NK1 receptor, biosensor change of localization)
Method: The Ic50 for L733,060 was Approx. 1.84×10^−7M after a treatment of 24 h with the agonist.

T1 sequence (P25103 whole entry, species assumed): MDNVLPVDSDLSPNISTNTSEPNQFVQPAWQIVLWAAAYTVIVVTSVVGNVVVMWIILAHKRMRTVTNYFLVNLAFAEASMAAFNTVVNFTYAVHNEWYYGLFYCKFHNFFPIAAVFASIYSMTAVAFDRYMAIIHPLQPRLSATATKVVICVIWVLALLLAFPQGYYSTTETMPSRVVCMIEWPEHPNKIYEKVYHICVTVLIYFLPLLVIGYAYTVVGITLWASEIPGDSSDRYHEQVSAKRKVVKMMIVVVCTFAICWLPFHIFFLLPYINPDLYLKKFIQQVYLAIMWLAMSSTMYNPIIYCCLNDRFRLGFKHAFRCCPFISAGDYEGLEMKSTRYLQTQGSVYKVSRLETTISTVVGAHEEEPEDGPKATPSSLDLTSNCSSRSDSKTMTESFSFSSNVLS

IC50: ~0.184 µM
Structure (SMILES): FC(F)(F)c1cc(CO[C@H]2CCCN[C@H]2c2ccccc2)cc(C(F)(F)F)c1 [L733,060]
